Experimental data reported in patent publication US20150105252A1, “SUBSTITUTED PYRAZOLES AS HERBICIDES” (E I DU PONT DE NEMOURS AND COMPANY, priority 2013, published 2015).

What was measured:
foxtail, giant [1] = assay: Test C preemergence; format: in vivo, Setaria faberii
Text: (§1) Seeds of plant species selected from blackgrass (Alopecurus myosuroides), ryegrass, Italian (Italian ryegrass, Lolium multiflorum), wheat (winter wheat, Triticum aestivum), galium (catchweed bedstraw, Galium aparine), corn (Zea mays), crabgrass, large (large crabgrass, Digitaria sanguinalis), foxtail, giant (giant foxtail, Setaria faberii), johnsongrass (Sorghum halepense), lambsquarters (Chenopodium album), morningglory (Ipomoea coccinea), nutsedge, yellow (yellow nutsedge, Cyperus esculentus), pigweed (redroot pigweed, Amaranthus retroflexus), ragweed (common ragweed, Ambrosia elation), soybean (Glycine max), barnyardgrass (Echinochloa crus-galli), oilseed rape (Brassica napus), waterhemp (common waterhemp, Amaranthus rudis), oat, wild (wild oat, Avena fatua), kochia (Kochia scoparia), Surinam grass (Brachiaria decumbens), foxtail, green (green foxtail, Setaria viridis), goosegrass (Eleusine indica), bromegrass, downy (downy bromegrass, Bromus tectorum), nightshade (eastern black nightshade, Solanum ptycanthum), cocklebur (common cocklebur, Xanthium strumarium), cupgrass, woolly (woolly cupgrass, Eriochloa villosa), bermudagrass (Cynodon dactylon), sunflower, (common oilseed sunflower, Helianthus annuus), Russian thistle (Salsola kali), and velvetleaf (Abutilon theophrasti) were planted into a blend of loam soil and sand and treated preemergence with test chemicals formulated in a non-phytotoxic solvent mixture which included a surfactant.
(§2) At the same time, plants selected from these crop and weed species and also chickweed (common chickweed, Stellaria media), canarygrass (littleseed canarygrass, Phalaris minor), and deadnettle (henbit deadnettle, Lamium amplexicaule), were planted in pots containing Redi-Earth® planting medium (Scotts Company, 14111 Scottslawn Road, Marysville, Ohio 43041) comprising spaghnum peat moss, vermiculite, wetting agent and starter nutrients and treated with postemergence applications of test chemicals formulated in the same manner. Plants ranged in height from 2 to 18 cm (1- to 4-leaf stage) for postemergence treatments. Treated plants and controls were maintained in a greenhouse for 13 to 15 days, after which time all species were compared to controls and visually evaluated. Plant response ratings, summarized in Table C, are based on a scale of 0 to 100 where 0 is no effect and 100 is complete control. A dash (-) response means no test result.

foxtail, giant [2] = assay: Test A preemergence; format: in vivo, Setaria faberii; conditions: for Foxtail, Giant plant response rating (0 to 100 scale): 125 g ai/ha, visual injury approx. 10 days after treatment
In short: (§3)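 Scoring was visual, on a scale where 100 means complete control and 0 means no effect, comparing treated with untreated plants around 10 days post-application. Compounds in surfactant-containing non-phytotoxic solvent were sprayed onto soil preemergence or onto one- to two-leaf seedlings (2–10 cm) postemergence.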

johnsongrass = assay: Test C preemergence; format: in vivo, Sorghum halepense
Text: as §1, §2

wheat [3] = assay: Test A preemergence; format: in vivo, Triticum aestivum; conditions: for Wheat plant response rating (0 to 100 scale): 125 g ai/ha, visual injury approx. 10 days after treatment
In short: as §3

crabgrass, large = assay: Test C postemergence; format: in vivo, Digitaria sanguinalis; conditions: for Crabgrass, Large plant response rating: scale 0 to 100
In short: (§4)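 Greenhouse pot test: preemergence application onto freshly seeded loam/sand mix, postemergence application onto seedlings (1–4 leaves, 2–18 cm) in peat-vermiculite substrate. Responses scored visually 13 to 15 days later relative to controls, where 0 means no effect and 100 means complete control; a dash indicates no result.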

wheat [4] = assay: Test A postemergence; format: in vivo, Triticum aestivum
In short: as §3

velvetleaf = assay: Test C postemergence; format: in vivo, Abutilon theophrasti; conditions: postemergence
In short: as §4

rice = assay: Test B flood; format: in vivo, Oryza sativa; conditions: 250 g ai/ha, visual rating on 0 to 100 scale (0 no effect, 100 complete control), 13 to 15 days
In short: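 Response scored visually, 0–100 relative to controls, 13–15 days after the compound was applied into paddy water; plants were at the 2-leaf stage in pots kept flooded to 3 cm.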

nutsedge, yellow = assay: Test C postemergence; format: in vivo, Cyperus esculentus; conditions: for Nutsedge, Yellow plant response rating: scale 0 to 100
In short: as §4

pigweed = assay: Test A preemergence; format: in vivo, Amaranthus retroflexus; conditions: for Pigweed plant response rating (0 to 100 scale): 125 g ai/ha, visual injury approx. 10 days after treatment
In short: as §3

blackgrass = assay: Test C postemergence; format: in vivo, Alopecurus myosuroides; conditions: for Blackgrass plant response rating: scale 0 to 100
Text: as §1, §2

lambsquarters = assay: Test C preemergence; format: in vivo, Chenopodium album
Text: as §1, §2

[5] = preemergence, 31 g ai/ha, scale 0 to 100 (0 no effect, 100 complete control), 13 to 15 days
[6] = preemergence, 62 g ai/ha, 13 to 15 days, scale 0 to 100, 0 = no effect, 100 = complete control
[7] = preemergence, 125 g ai/ha, scale 0 to 100, 0 is no effect, 100 is complete control
[8] = Preemergence, 1000 g ai/ha, 0 to 100 scale, 0 no effect, 100 complete control
[9] = preemergence, 500 g ai/ha, visual injury after approx. 10 days, 0 to 100 scale (0 no effect, 100 complete control)
[10] = postemergence, 250 g ai/ha, scale 0 to 100 (0 no effect, 100 complete control)
[11] = postemergence, 125 g ai/ha, scale 0 to 100, 0 no effect, 100 complete control
[12] = preemergence, 31 g ai/ha, visual rating, scale 0 to 100 (0 no effect, 100 complete control), 13 to 15 days
[13] = preemergence, 62 g ai/ha, scale 0 to 100 (0 no effect, 100 complete control), 13 to 15 days
[14] = preemergence, 125 g ai/ha, 13 to 15 days, scale 0 to 100, 0 = no effect, 100 = complete control
[15] = preemergence, 250 g ai/ha, scale 0 to 100, 0 is no effect, 100 is complete control
[16] = Postemergence, 500 g ai/ha, 0 to 100 scale (0 no effect, 100 complete control)
[17] = postemergence, 125 g ai/ha, about 10 days, visual rating on 0 to 100 scale (0 no effect, 100 complete control)
[18] = Preemergence, 16 g ai/ha, scale 0 to 100

## Cc1cc(C(=O)NCC(F)(F)F)nn1Cc1ccnc(C(F)(F)F)c1 [Compound 74]
foxtail, giant [1]; Preemergence, 250 g ai/ha
  Plant response rating (scale of 0 to 100), Foxtail, Giant: 100
foxtail, giant [1]; [5]
  Foxtail, Giant plant response rating: 80
foxtail, giant [1]; [6]
  Plant response rating, Foxtail, Giant: 100
foxtail, giant [1]; [7]
  Foxtail, Giant plant response rating: 100
foxtail, giant [2]; [8]
  Foxtail, Giant plant response rating: 100
johnsongrass; Preemergence, 250 g ai/ha
  Plant response rating (scale of 0 to 100), Johnsongrass: 100
johnsongrass; [5]
  Johnsongrass plant response rating: 10
johnsongrass; [6]
  Plant response rating, Johnsongrass: 25
johnsongrass; [7]
  Johnsongrass plant response rating: 98
Wheat [3]; [8]
  Wheat plant response rating: 100
Wheat [3]; [9]
  Wheat plant response rating: 30
crabgrass, large; Postemergence, 31 g ai/ha
  Crabgrass, Large plant response rating: 10
crabgrass, large; postemergence, 62 g ai/ha
  Crabgrass, Large plant response rating: 20
crabgrass, large; [10]
  Plant response rating, Crabgrass, Large: 75
crabgrass, large; [11]
  Plant response rating, Crabgrass, Large: 30
Wheat [4]; Postemergence, 1000 g ai/ha, visual rating after approx. 10 days, 0 to 100 scale (0 no effect, 100 complete control)
  Wheat plant response rating: 90
velvetleaf; 62 g ai/ha, scale 0 to 100
  Velvetleaf plant response rating: 30
velvetleaf; 250 g ai/ha, scale 0 to 100 (0 no effect, 100 complete control)
  Plant response rating, Velvetleaf: 40
velvetleaf; 125 g ai/ha, scale 0 to 100, 0 no effect, 100 complete control
  Plant response rating, Velvetleaf: 30
rice
  Plant response rating, Rice: 0
nutsedge, yellow; Postemergence, 31 g ai/ha
  Nutsedge, Yellow plant response rating: 0
nutsedge, yellow; postemergence, 62 g ai/ha
  Nutsedge, Yellow plant response rating: 5
nutsedge, yellow; [10]
  Plant response rating, Nutsedge, Yellow: 15
nutsedge, yellow; [11]
  Plant response rating, Nutsedge, Yellow: 5
pigweed; [8]
  Pigweed plant response rating: 100
blackgrass; Postemergence, 31 g ai/ha
  Blackgrass plant response rating: 0
blackgrass; postemergence, 62 g ai/ha
  Blackgrass plant response rating: 0
blackgrass; [10]
  Plant response rating, Blackgrass: 5
blackgrass; [11]
  Plant response rating, Blackgrass: 5
lambsquarters; Preemergence, 250 g ai/ha
  Plant response rating (scale of 0 to 100), Lambsquarters: 95
lambsquarters; [5]
  Lambsquarters plant response rating: 85
lambsquarters; [6]
  Plant response rating, Lambsquarters: 90
lambsquarters; [7]
  Lambsquarters plant response rating: 90

## O=C(NCC(F)(F)F)c1cc(CCF)n(Cc2ccnc(C(F)(F)F)c2)n1 [Compound 175]
foxtail, giant [1]; [12]
  Foxtail, Giant plant response rating: 75
foxtail, giant [1]; [13]
  Foxtail, Giant plant response rating: 100
foxtail, giant [1]; [14]
  Plant response rating, Foxtail, Giant: 100
foxtail, giant [1]; [15]
  Foxtail, Giant plant response rating: 100
foxtail, giant [2]; preemergence
  Foxtail, Giant plant response rating (0 to 100 scale): 100
foxtail, giant [2]; [9]
  Foxtail, Giant plant response rating: 100
johnsongrass; [12]
  Johnsongrass plant response rating: 0
johnsongrass; [13]
  Johnsongrass plant response rating: 35
johnsongrass; [14]
  Plant response rating, Johnsongrass: 70
johnsongrass; [15]
  Johnsongrass plant response rating: 100
Wheat [3]; preemergence
  Wheat plant response rating (0 to 100 scale): 20
Wheat [3]; [9]
  Wheat plant response rating: 100
Wheat [4]; [16]
  Wheat plant response rating: 80
Wheat [4]; [17]
  Wheat plant response rating: 40
rice
  Plant response rating, Rice: 25
pigweed; preemergence
  Pigweed plant response rating (0 to 100 scale): 100
pigweed; [9]
  Pigweed plant response rating: 100
lambsquarters; [12]
  Lambsquarters plant response rating: 98
lambsquarters; [13]
  Lambsquarters plant response rating: 100
lambsquarters; [14]
  Plant response rating, Lambsquarters: 100
lambsquarters; [15]
  Lambsquarters plant response rating: 100

## O=C(NC1CC1)c1cc(CCF)n(Cc2ccnc(C(F)(F)F)c2)n1 [Compound 176]
foxtail, giant [1]; [12]
  Foxtail, Giant plant response rating: 35
foxtail, giant [1]; [13]
  Foxtail, Giant plant response rating: 90
foxtail, giant [1]; [14]
  Plant response rating, Foxtail, Giant: 100
foxtail, giant [1]; [15]
  Foxtail, Giant plant response rating: 100
foxtail, giant [2]; preemergence
  Foxtail, Giant plant response rating (0 to 100 scale): 90
foxtail, giant [2]; [9]
  Foxtail, Giant plant response rating: 100
johnsongrass; [12]
  Johnsongrass plant response rating: 0
johnsongrass; [13]
  Johnsongrass plant response rating: 20
johnsongrass; [14]
  Plant response rating, Johnsongrass: 65
johnsongrass; [15]
  Johnsongrass plant response rating: 85
Wheat [3]; preemergence
  Wheat plant response rating (0 to 100 scale): 20
Wheat [3]; [9]
  Wheat plant response rating: 90
Wheat [4]; [16]
  Wheat plant response rating: 60
Wheat [4]; [17]
  Wheat plant response rating: 10
rice
  Plant response rating, Rice: 0
pigweed; preemergence
  Pigweed plant response rating (0 to 100 scale): 100
pigweed; [9]
  Pigweed plant response rating: 100
lambsquarters; [12]
  Lambsquarters plant response rating: 80
lambsquarters; [13]
  Lambsquarters plant response rating: 98
lambsquarters; [14]
  Plant response rating, Lambsquarters: 100
lambsquarters; [15]
  Lambsquarters plant response rating: 100

## CCNC(=O)c1cc(CCF)n(Cc2ccnc(C(F)(F)F)c2)n1 [Compound 178]
foxtail, giant [1]; [18]
  Plant response rating, Foxtail, Giant: 5
foxtail, giant [1]; [12]
  Foxtail, Giant plant response rating: 65
foxtail, giant [1]; [13]
  Foxtail, Giant plant response rating: 90
foxtail, giant [1]; [14]
  Plant response rating, Foxtail, Giant: 100
foxtail, giant [2]; preemergence
  Foxtail, Giant plant response rating (0 to 100 scale): 90
foxtail, giant [2]; [9]
  Foxtail, Giant plant response rating: 100
johnsongrass; [18]
  Plant response rating, Johnsongrass: 0
johnsongrass; [12]
  Johnsongrass plant response rating: 0
johnsongrass; [13]
  Johnsongrass plant response rating: 5
johnsongrass; [14]
  Plant response rating, Johnsongrass: 25
Wheat [3]; preemergence
  Wheat plant response rating (0 to 100 scale): 0
Wheat [3]; [9]
  Wheat plant response rating: 30
Wheat [4]; [16]
  Wheat plant response rating: 30
Wheat [4]; [17]
  Wheat plant response rating: 0
rice
  Plant response rating, Rice: 0
pigweed; preemergence
  Pigweed plant response rating (0 to 100 scale): 100
pigweed; [9]
  Pigweed plant response rating: 100
lambsquarters; [18]
  Plant response rating, Lambsquarters: 65
lambsquarters; [12]
  Lambsquarters plant response rating: 80
lambsquarters; [13]
  Lambsquarters plant response rating: 100
lambsquarters; [14]
  Plant response rating, Lambsquarters: 100

## CCCc1cc(C(=O)NOC(C)C)nn1Cc1cc(C(F)(F)F)nn1C [Compound 203]
foxtail, giant [1]; [12]
  Foxtail, Giant plant response rating: 60
foxtail, giant [1]; [13]
  Foxtail, Giant plant response rating: 98
foxtail, giant [1]; [14]
  Plant response rating, Foxtail, Giant: 100
foxtail, giant [1]; [15]
  Foxtail, Giant plant response rating: 100
foxtail, giant [2]; preemergence
  Foxtail, Giant plant response rating (0 to 100 scale): 80
foxtail, giant [2]; [9]
  Foxtail, Giant plant response rating: 100
johnsongrass; [12]
  Johnsongrass plant response rating: 0
johnsongrass; [13]
  Johnsongrass plant response rating: 0
johnsongrass; [14]
  Plant response rating, Johnsongrass: 40
johnsongrass; [15]
  Johnsongrass plant response rating: 55
Wheat [3]; preemergence
  Wheat plant response rating (0 to 100 scale): 80
Wheat [4]; Postemergence, 125 g ai/ha, 0 to 100 scale, 0 no effect, 100 complete control
  Wheat plant response rating: 70
Wheat [4]; [16]
  Wheat plant response rating: 80
rice
  Plant response rating, Rice: 0
pigweed; preemergence
  Pigweed plant response rating (0 to 100 scale): 100
lambsquarters; [12]
  Lambsquarters plant response rating: 75
lambsquarters; [13]
  Lambsquarters plant response rating: 100
lambsquarters; [14]
  Plant response rating, Lambsquarters: 100
lambsquarters; [15]
  Lambsquarters plant response rating: 100
